Measured values from PMC11887051, “Discovery of ONO-2920632 (VU6011887): A Highly Selective and CNS Penetrant TREK-2 (TWIK-Related K+ Channel 2) Preferring Activator In Vivo Tool Compound” (ACS Chemical Neuroscience, 2025).
Where “and” joins values, the source holds several entries; their conditions need not be identical. Equal values may be shown once. Entries after “also recorded” stand apart in the source; their conditions may differ. Read-outs that look alike come from different tables or passages of the source. Blank lines part the entries; values can stand above or below the compound they belong to.

How the values were obtained:
rat PK study = format: in vivo; details: plasma; for clearance: read-out: rat CLp; for Vd: read-out: rat Vss; for half-life: read-out: rat t1/2 (converted)
mouse TREK-1 = target: T1, mouse TREK-1 (Mus musculus, UniProt P97438); experiment: mouse TREK-1 MPC assay; format: cell-based; details: manual patch clamp
T1 sequence (P97438 1-426): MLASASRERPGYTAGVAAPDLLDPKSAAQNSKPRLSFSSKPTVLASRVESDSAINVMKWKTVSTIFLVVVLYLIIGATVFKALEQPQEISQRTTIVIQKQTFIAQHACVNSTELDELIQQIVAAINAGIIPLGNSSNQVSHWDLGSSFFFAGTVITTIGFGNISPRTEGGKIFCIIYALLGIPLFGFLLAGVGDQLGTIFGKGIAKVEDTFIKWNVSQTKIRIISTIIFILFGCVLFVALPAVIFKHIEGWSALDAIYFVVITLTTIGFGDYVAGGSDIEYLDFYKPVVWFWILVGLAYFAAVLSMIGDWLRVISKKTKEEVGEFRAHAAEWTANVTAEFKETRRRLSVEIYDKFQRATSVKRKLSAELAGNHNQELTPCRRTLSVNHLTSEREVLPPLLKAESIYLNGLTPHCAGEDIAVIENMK

[1] = mouse predicted hepatic clearance; format: in vitro ADME
Method: Intrinsic clearance: Human or rat hepatic microsomes (0.5 mg/mL) and 1 µM test compound were incubated in 100 mM potassium phosphate pH 7.4 buffer with 3 mM MgCl2 at 37 °C with constant shaking. After a 5 min preincubation, the reaction was initiated by the addition of NADPH (1 mM). At selected time intervals (0, 3, 7, 15, 25, and 45 min), aliquots were taken and subsequently placed into a 96-well plate containing cold acetonitrile with internal standard (50 ng/mL carbamazepine). Plates were then centrifuged at 3000 rcf (4 °C) for 10 min, and the supernatant was transferred to a separate 96-well plate and diluted 1:1 with water for LC/MS/MS analysis. The in vitro half-life ( 1/2, min, Eq. 1), intrinsic clearance (CLint, mL/min/kg, Eq. 2), and subsequent predicted hepatic clearance (CLhep, mL/min/kg, Eq. 3) was determined employing the […]
where k represents the slope from linear regression analysis of the natural log percent remaining of a test compound as a function of incubation time […]
(2) CLint = in vitroT1/2 x mg microsomes x gram liver x kg body wt ascale-up factors: of 20 (human) or 45 (rat) […]
where Qh (hepatic blood flow, mL/min/kg) is 21 (human) or 70 (rat).
LC/MS/MS Bioanalysis of Samples from Plasma Protein Binding and Intrinsic Clearance […]
Samples were analyzed on a Thermo Electron TSQ Quantum Ultra triple quad mass spectrometer (San Jose, CA) via electrospray ionization (ESI) with two Themo Electron Accella pumps (San Jose, CA), and a Leap Technologies CTC PAL autosampler (Carrboro, NC). Analytes were separated by gradient elution on a dual column system with two Thermo Hypersil Gold (2.1 x 30 mm, 1.9 µm) columns (San Jose, CA) thermostated at 40 °C. HPLC mobile phase A was 0.1% formic acid in water and mobile phase B was 0.1% formic acid in acetonitrile. The gradient started […]
for 0.2 min; returned to 10% B in 0.1 min. The total run time was 1.3 min and the HPLC flow rate was 0.8 mL/min. […]

TREK-2 = target: T2, TREK-2 (Homo sapiens, UniProt P57789); experiment: human 86Rb flux K2P selectivity panel; format: cell-based
T2 sequence (P57789 1-538): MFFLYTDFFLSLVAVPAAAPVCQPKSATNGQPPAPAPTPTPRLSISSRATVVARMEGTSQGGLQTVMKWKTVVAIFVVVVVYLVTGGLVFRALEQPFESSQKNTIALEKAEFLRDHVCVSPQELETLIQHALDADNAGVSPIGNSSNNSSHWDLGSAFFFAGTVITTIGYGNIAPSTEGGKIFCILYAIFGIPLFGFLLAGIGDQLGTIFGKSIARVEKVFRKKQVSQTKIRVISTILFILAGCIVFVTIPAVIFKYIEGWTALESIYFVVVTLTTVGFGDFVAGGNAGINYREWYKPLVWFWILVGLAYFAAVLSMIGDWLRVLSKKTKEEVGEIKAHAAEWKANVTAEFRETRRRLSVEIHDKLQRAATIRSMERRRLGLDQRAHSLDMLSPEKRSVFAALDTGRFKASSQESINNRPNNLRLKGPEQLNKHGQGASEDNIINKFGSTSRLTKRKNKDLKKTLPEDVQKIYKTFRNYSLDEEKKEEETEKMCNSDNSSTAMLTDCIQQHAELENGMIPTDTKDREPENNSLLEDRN

TRESK = target: T3, TRESK (Homo sapiens, UniProt Q7Z418); experiment: human 86Rb flux K2P selectivity panel; format: cell-based; details: 86Rb flux K2P panel; for activity at TRESK: data is not shown
T3 sequence (Q7Z418 1-384): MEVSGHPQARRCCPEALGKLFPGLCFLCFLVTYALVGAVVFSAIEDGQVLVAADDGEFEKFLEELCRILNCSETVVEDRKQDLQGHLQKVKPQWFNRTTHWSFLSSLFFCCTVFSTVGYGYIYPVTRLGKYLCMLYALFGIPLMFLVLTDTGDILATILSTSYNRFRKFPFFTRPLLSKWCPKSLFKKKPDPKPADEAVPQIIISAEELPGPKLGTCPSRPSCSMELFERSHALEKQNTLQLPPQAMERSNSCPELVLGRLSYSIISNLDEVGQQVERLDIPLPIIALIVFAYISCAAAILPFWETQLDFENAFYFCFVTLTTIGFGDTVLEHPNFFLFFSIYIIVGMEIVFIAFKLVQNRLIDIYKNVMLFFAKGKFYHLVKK

TASK-3 = experiment: human 86Rb flux K2P selectivity panel; format: cell-based; details: 86Rb flux K2P panel
TWIK-2 = experiment: human 86Rb flux K2P selectivity panel; format: cell-based; details: 86Rb flux K2P panel
TASK-2 = experiment: human 86Rb flux K2P selectivity panel; format: cell-based; details: 86Rb flux K2P panel
TASK-1 = experiment: human 86Rb flux K2P selectivity panel; format: cell-based; details: 86Rb flux K2P panel
TRAAK = experiment: human 86Rb flux K2P selectivity panel; format: cell-based; details: 86Rb flux K2P panel
Bradykinin B2 = Bradykinin B2 (Homo sapiens, UniProt P30411); experiment: Eurofins Lead Profiling radioligand binding; details: title: 30 μM
[2] = Sprague-Dawley, intravenous, rat cassette PK study

Sequence of Bradykinin B2 (P30411 whole entry): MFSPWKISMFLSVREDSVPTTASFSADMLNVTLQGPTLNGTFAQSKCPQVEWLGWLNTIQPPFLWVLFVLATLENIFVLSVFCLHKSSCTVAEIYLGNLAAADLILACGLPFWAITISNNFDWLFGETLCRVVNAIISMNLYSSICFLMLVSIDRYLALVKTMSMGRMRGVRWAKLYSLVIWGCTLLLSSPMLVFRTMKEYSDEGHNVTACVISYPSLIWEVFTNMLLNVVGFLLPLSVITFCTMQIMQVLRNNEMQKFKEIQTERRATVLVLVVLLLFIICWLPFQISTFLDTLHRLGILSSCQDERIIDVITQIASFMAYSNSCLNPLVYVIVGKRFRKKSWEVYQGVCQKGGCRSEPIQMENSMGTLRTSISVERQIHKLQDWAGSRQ

clearance (rat PK study; rat PK profile): 3.5 mL/min/kg
Vd (rat PK study; rat PK profile): 0.787 L/kg
half-life (rat PK study; rat PK profile): 3 h
SMILES: CS(=O)(=O)Nc1ccc(C(=O)NCc2ccc(Cl)cc2Cl)cc1 [Compound 13]

clearance (rat PK study; [2]): 20.5 mL/min/kg
Vd (rat PK study; [2]): 1.5 L/kg
half-life (rat PK study; [2]): 1.1 h
EC50 (mouse TREK-1): 1900 nM
Emax (mouse TREK-1): 94%
mouse CLhep (predicted hepatic clearance) [1]: 33.0 mL/min/kg
SMILES: O=C(NCc1ccc(Br)cc1Cl)c1ccc(-c2ncn[nH]2)cc1 [Compound 14a]

EC50 (mouse TREK-1): 5000 nM
Emax (mouse TREK-1): 106%
mouse CLhep (predicted hepatic clearance) [1]: 30.5 mL/min/kg
SMILES: Cc1cc(OC(F)(F)F)ccc1CNC(=O)c1ccc2ncnn2c1 [Compound 19a]

SMILES: O=C(NCc1ccc(OC(F)(F)F)cc1F)c1ccc2ncnn2c1 [Compound 19b]
TREK-2 preference in 86Rb flux assay (TREK-2; TREK-2 over TREK-1): ~46 fold
activity at TREK-2 in 86Rb flux panel (TREK-2; data is not shown): submicromolar activity
selectivity against TRESK over TREK-2 (TRESK): 31 fold
activity at TRESK (TRESK): micromolar inhibitor activity
selectivity against TASK-3 over TREK-2 (TASK-3): > 150 fold
selectivity against TWIK-2 over TREK-2 (TWIK-2): > 150 fold
selectivity against TASK-2 over TREK-2 (TASK-2): > 150 fold
selectivity against TASK-1 over TREK-2 (TASK-1): > 150 fold
EC50 (mouse TREK-1): 2700 nM
Emax (mouse TREK-1): 109%
selectivity against TRAAK over TREK-2 (TRAAK): > 150 fold
inhibition at 10 µM (Bradykinin B2): 5%
mouse CLhep (predicted hepatic clearance) [1]: 17.8 mL/min/kg

SMILES: O=C(NCc1ccc(OC(F)(F)F)cc1Cl)c1ccc2nncn2c1 [Compound 20]
activity at TRESK (TRESK): micromolar inhibitor activity; also recorded: micromolar inhibitory activity
selectivity against TASK-3 over TREK-1/2 (TASK-3): > 91 fold and > 85 fold
selectivity against TWIK-2 over TREK-1/2 (TWIK-2): > 91 fold and > 85 fold
selectivity against TASK-2 over TREK-1/2 (TASK-2): > 91 fold and > 85 fold
selectivity against TASK-1 over TREK-1/2 (TASK-1): > 91 fold and > 85 fold
selectivity against TRAAK over TREK-1 (TRAAK): 85 fold and > 85 fold
